From patent EP3324923B1, “COMPOSITIONS AND METHODS USING PALYTHINE” (King's College London, priority 2015, dated 2017)

Experiments:
HaCaT keratinocytes [1] = test: Single-cell gel electrophoresis (comet assay) of UV-induced DNA damage; type: cell-based, human; conditions: for percentage change in % DNA in the tail in protected cells compared to unprotected cells: n=3, t-test; for Mean % DNA Damage: 10J/cm^2 UVA
Procedure: This measurement is based on the comet assay (single cell gel electrophoresis) which detects damage to nuclear DNA that result from nucleotide excision repair (NER) and nucleotide photooxidation. Using the lesion specific enzymes T4N5 that recognizes CPD and hOGG1 that recognizes 8-oxoGua, palythine was tested by comparing pure palythine compound with naturally occurring amphoteric MAA mixtures to that of industry accepted sun-filter controls.
Powdered sunscreens were dissolved in PBS (Sigma-Aldrich, UK) at a concentration in which they can dissolve fully (0-0.3%). They were then applied (200ul/well) to wells of a 24 well plate containing a washed monolayer of cells. Cells were then irradiated and the sunscreen removed and washed post treatment.
Irradiation was carried out on cells in monolayers at a distance of 3 cm (Solar Simulator) in cold PBS or PBS + sunscreen. The plate was always placed on a cooling platform at 4°C to avoid overheating of the cells. Unirradiated samples were maintained in PBS for the same time and temperature as irradiated samples.
DNA damage was measured using the comet assay, using lesion specific enzymes to determine the type of damaged produced.
Glass slides are pre-coated with 1% agarose and allowed to dry. Cells were treated with UV +/- sunscreens. Positive controls were treated with ice cold 0.03% Hydrogen Peroxide for 5 minutes, negative controls were kept in the same conditions as the treatments without UV exposure.
After treatment cells were scraped gently with a cell scraper in EDTA solution to help dissociate cells and stop clumping. The cells (40ul) were then added to low melting point (LMP) agarose (160ul) and gently mixed. The final concentration of cells in the LMP agarose was 10,000 cells/100ul of agarose. Then 100ul of the agarose-cell solution was pipetted onto the pre-coated slides and a cover slip was placed onto the gels and left to set for 5-10 minutes then removed. Two replicates were placed on each slide. All steps were carried out on a cooled platform at 4°C. Slides were then places into lysis buffer (2.5M NaCl, 100mM EDTA, 10mM TRIS, 1% sodium sarcosinate, 1% Triton x-100, 10% DMSO) overnight at 4°C in the dark.
Slides were then washed in ice-cold ddH2O (2x5 mins) in the dark and once in ice cold enzyme reaction buffer (0.4mM HEPES, imMKCl, 0.005mM EDTA, 0.02mg/ml BSA) for 5 minutes. After this step different lesions were detected using lesion specific enzymes.
Cylcobutane pyrimidine dimers were measured using the T4 endonuclease V (T4endoV) enzyme. After washing, 50ul of enzyme diluted in reaction buffer (hOGG1- 3.2U/ml, T4EndoV - 0.1U/ml) or reaction buffer alone were added to each gel, a cover slip placed on top and left in a humidity chamber in the dark at 37°C for 45 minutes.
After enzyme treatment coverslips were removed and transferred into ice-cold electrophoresis buffer (10mM NaOH, 200mM EDTA, pH13 in ddH2O) and incubated at 4°C in the dark for 20 minutes. Electrophoresis was then carried out in fresh electrophoresis buffer for 25 minutes at 25V (1V/cm) 300mA, at 4°C in the dark. Slides were then washed in neutralisation buffer (0.4M TRIS, pH7.5) for 2x 10 minutes, and then in ddH2O for 2x 5 minutes and slides were allowed to dry overnight.
The DNA embedded in the slides was stained using Propidium Iodide solution (2.5ug/ml in PBS), 50ul of the solution was added to each gel and cover slip placed over. The slides were then analysed on a Zeiss Axiophot epifluorescence microscope (Carl Zeiss, Germany), with a green excitation filter (536nm) detected with a red emission at 617nm. Pictures covering the whole gel were taken, avoiding the outer edges, using a Nikon camera at a magnification of 10x. The images were then analysed using Comet Score Pro software (Tritek Corp, Summerduck, VA), typically scoring 150 individual comets per condition. […]

HaCaT keratinocytes [2] = test: CPD DNA lesion formation by IHC-IF; type: cell-based, human; conditions: 20J/cm^2 SSR; palythine 0.3-10%w/v; immediately post exposure; n=3; p<0.0001
Procedure: HaCat keratinocytes were irradiated with 20J/cm^2 of solar simulated UVR radiation with 0% (PBS alone), 0.3%, 4% or 10% of palythine. The relative formation of the CPD DNA lesion was measured by IHC-IF and the relative fluorescent intensity plotted. The data in figure 11 show protection by palythine against solar simulated UVR induced CPD formation by IHC-IF.
The radiation procedure was carried out as described above. Cells were washed, then fixed in 2 % (v/v) paraformaldehyde with 0.5 % (v/v) Triton X-100 in PBS for 30 mins at 4 °C. DNA was then denatured by incubation in 2 M HCl for 10 mins at 37 °C. Nonspecific sites were blocked using blocking buffer of 20 % (v/v) goat serum and 0.1 % (v/v) triton x-100 in PBS for 30 mins at room temperature. The primary antibody used was Anti-CPD (Clone TDM-2) (Cosmobio, Tokyo, Japan) at 1:1000 in blocking buffer for 1 hr at room temperature. Alexafluor 488 was diluted in blocking buffer (1:200 dilution) and incubated for 1 hr at room temperature and finally DAPI was added for 10 mins. Washing was carried out (3x5 mins) between each step.
All assays were performed on HaCat cells grown as a 70-80 % confluent monolayer in multiwell plates. They were washed three times in PBS and covered with palythine dissolved in PBS at differing concentrations (0, 0.1, 0.3 %, 4 % and 10 % w/v). […]

Q: How did the “improved protection from DNA damage” value (HaCaT keratinocytes [1]; 0.3% palythine (48% damage) versus Gelyma composition at 4% (76% damage)) turn out when `COC1=C(NCC(=O)O)CC(O)(CO)CC1=N` (centres unmarked) [palythine] was run?
A: Its value is 58.33%.

Q: What about the DNA damage (HaCaT keratinocytes [1]; 0.3% palythine, from the applicant's data) of the same compound?
A: Its DNA damage is 48%.

Q: And the “percentage change in % DNA in the tail in protected cells compared to unprotected cells” value (HaCaT keratinocytes [1]; 5J/cm^2 solar simulated UVR, 0.3% palythine, figure 9)?
A: The value was “significant protection”.

Q: And the “percentage change in % DNA in the tail in protected cells compared to unprotected cells” value (HaCaT keratinocytes [1]; 20J/cm^2 UVA, 0.3% palythine, figure 10)?
A: Its value is “significant protection”.

Q: What about the “Mean % DNA Damage” value (HaCaT keratinocytes [1]; No Enzyme (single strand breaks / alkali labile sites), 0.1% palythine in PBS, mean percentage of tail DNA, n=1) of the same compound?
A: Its value is 14.263%.

Q: What about the “Mean % DNA Damage” value (HaCaT keratinocytes [1]; No Enzyme (single strand breaks / alkali labile sites), 0.3% palythine in PBS, mean percentage of tail DNA, n=1) of the same compound?
A: Its value is 9.914%.

Q: And the “Mean % DNA Damage” value (HaCaT keratinocytes [1]; T4N5 (cyclobutane pyrimidine dimers, CPDs), 0.1% palythine)?
A: Its value is 26.328%.

Q: What about the “Mean % DNA Damage” value (HaCaT keratinocytes [1]; T4N5 (cyclobutane pyrimidine dimers, CPDs), 0.3% palythine) of the same compound?
A: Its value is 15.345%.

Q: And the “protection for the DNA lesions tested (general damage, CPD and 8oxoGua)” value (HaCaT keratinocytes [1]; comet assay and IHC-IF, palythine at 0.3% or greater, UVA and SSR induced damage, p=<0.05)?
A: The value was “significant protection”.

Q: And the “DNA damage caused by UVA and UVB exposure” value (HaCaT keratinocytes [1]; lesion specific enzymes T4N5 (CPD) and hOGG1 (8-oxoGua))?
A: The value was “significantly reduces DNA damage”.

Q: What about the “CPD production compared to irradiated control” value (HaCaT keratinocytes [2]) of the same compound?
A: The value was “significant reduction”.
